Test results from US20260049076A1, “Tertiary Amine Substituted Bicyclic Compounds Useful as T Cell Activators” (BRISTOL-MYERS SQUIBB COMPANY, priority 2022, published 2026).

How the values were obtained:
DGKzeta = DGKzeta (Homo sapiens, UniProt Q13574); assay: Translocation DGKzeta; format: cell-based
DGKalpha = DGKalpha (Homo sapiens, UniProt P23743); assay: Translocation DGKalpha; format: cell-based
human DGKα = molecular target: T1, human DGKα (Homo sapiens, UniProt P23743); assay: In vitro DGK inhibition assay, DGKα liposome (LIPGLO) assay; format: biochemical; settings: read-out: Enzyme Inhibition DGKalpha IC50
T1 construct: TVMV protease cleavage site (C); Hexa-His (C); made in house; host or cells: Sf9 insect cells (baculovirus)
In short: (§1)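 Baculovirus/Sf9-expressed His-tagged human DGKα or DGKζ (5 nM) on extruded liposomes (2 mM PS, 0.25 mM DAG, 2.75 mM PC) in MOPS pH 7.5 with MgCl2, CaCl2 and 150 μM ATP, 1 h.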

human DGKζ = molecular target: T2, human DGKζ (Homo sapiens, UniProt Q13574); assay: In vitro DGK inhibition assay, DGKζ liposome (LIPGLO) assay; format: biochemical; settings: read-out: Enzyme Inhibition DGKzeta IC50
T2 construct: TVMV protease cleavage site (C); Hexa-His (C); made in house; host or cells: Sf9 insect cells (baculovirus)
In short: as §1

T2 sequence (Q13574 with tags, fused parts or gaps isoform Q13574-4): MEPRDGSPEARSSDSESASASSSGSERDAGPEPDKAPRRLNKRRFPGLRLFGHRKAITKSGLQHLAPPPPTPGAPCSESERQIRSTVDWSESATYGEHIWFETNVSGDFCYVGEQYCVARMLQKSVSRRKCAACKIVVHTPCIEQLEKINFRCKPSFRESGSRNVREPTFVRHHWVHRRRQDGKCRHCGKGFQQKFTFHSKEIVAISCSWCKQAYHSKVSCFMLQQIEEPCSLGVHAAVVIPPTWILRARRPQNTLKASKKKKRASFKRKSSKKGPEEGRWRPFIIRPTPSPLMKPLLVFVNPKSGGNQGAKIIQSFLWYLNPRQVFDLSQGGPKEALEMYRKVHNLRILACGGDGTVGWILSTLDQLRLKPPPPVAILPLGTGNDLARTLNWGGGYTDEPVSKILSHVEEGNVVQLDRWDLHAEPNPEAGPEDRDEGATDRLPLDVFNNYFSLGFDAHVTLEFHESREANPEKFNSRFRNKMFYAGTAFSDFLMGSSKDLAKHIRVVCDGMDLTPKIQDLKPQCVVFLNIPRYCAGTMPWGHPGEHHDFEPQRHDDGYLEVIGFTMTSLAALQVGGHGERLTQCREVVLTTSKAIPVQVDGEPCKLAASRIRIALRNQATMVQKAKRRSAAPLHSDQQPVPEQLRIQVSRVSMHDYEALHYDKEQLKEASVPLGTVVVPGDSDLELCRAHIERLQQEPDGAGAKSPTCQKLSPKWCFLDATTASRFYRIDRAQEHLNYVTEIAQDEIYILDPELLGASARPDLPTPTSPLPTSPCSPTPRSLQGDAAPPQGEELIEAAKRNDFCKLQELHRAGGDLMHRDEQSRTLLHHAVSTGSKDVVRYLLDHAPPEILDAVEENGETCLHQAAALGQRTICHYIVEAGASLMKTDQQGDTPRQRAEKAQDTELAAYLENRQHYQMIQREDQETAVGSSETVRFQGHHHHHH
DGKalpha, sequence (P23743 whole entry): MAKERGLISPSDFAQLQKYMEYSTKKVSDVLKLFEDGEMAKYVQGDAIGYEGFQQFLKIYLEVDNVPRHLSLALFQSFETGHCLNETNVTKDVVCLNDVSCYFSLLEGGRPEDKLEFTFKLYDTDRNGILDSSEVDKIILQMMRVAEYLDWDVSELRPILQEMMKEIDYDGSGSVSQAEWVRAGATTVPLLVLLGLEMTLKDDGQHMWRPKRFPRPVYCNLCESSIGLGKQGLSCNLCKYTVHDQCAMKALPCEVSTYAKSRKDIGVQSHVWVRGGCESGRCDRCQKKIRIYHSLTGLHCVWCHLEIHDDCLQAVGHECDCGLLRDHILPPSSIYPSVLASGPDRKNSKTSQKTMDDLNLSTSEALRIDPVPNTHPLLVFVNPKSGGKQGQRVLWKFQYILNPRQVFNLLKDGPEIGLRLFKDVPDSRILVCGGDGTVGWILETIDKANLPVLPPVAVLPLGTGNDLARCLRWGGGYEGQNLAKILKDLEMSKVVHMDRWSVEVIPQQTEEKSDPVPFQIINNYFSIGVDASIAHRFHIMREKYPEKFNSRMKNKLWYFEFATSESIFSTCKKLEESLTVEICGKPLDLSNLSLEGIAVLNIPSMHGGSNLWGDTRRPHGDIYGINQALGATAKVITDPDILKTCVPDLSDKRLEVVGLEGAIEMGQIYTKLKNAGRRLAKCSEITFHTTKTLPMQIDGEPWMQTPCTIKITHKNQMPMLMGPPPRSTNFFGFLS
DGKzeta, sequence (Q13574 whole entry): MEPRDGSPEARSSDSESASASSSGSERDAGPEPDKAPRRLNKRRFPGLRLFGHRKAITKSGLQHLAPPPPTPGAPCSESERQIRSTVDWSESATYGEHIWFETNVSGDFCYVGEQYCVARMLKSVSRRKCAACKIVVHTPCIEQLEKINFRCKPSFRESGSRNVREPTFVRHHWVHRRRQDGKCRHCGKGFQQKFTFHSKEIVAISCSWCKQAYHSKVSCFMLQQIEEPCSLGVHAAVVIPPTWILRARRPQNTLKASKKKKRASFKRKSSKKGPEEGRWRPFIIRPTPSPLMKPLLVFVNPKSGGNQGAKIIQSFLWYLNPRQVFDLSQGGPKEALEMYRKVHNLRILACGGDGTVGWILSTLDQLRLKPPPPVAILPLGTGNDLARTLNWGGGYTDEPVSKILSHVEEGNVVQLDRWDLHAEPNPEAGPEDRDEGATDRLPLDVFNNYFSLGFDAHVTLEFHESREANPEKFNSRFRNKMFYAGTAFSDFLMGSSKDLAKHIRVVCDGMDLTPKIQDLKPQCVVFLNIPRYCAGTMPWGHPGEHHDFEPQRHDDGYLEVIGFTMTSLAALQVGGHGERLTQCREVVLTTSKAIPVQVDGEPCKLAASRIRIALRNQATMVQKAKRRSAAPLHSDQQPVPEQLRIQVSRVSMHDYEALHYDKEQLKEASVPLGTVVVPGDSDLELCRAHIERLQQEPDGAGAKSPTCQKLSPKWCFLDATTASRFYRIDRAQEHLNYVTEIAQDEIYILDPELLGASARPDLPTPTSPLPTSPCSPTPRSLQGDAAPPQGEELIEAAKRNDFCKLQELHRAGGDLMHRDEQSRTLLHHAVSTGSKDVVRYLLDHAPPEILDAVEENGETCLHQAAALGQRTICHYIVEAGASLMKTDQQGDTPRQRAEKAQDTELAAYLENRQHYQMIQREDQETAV
T1 sequence (P23743 with tags, fused parts or gaps): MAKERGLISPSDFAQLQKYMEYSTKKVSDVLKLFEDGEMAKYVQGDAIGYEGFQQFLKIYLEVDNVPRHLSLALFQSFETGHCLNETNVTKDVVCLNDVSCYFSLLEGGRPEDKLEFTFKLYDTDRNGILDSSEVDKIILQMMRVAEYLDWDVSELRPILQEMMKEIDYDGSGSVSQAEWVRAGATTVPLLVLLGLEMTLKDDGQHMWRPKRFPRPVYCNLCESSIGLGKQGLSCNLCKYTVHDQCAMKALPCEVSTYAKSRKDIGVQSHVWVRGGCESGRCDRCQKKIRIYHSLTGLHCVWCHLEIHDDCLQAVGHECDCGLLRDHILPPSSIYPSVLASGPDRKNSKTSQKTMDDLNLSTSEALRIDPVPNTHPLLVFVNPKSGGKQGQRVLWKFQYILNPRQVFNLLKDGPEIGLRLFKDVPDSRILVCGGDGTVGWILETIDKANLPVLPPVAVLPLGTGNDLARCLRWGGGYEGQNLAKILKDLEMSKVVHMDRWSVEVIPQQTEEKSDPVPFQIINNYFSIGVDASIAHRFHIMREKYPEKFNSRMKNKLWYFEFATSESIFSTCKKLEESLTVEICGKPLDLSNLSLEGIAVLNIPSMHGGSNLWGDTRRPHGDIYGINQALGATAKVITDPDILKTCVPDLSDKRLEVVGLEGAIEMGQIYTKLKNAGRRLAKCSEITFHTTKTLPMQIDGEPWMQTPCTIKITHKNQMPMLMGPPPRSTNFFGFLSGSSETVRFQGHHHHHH

EC50 (DGKzeta) [µM] | EC50 (DGKalpha) [µM] | IC50 (human DGKα) [µM] | IC50 (human DGKζ) [µM] | SMILES
0.091 | > 3 | 4.7 | 1.1 | Cn1c(=O)cc(N(CC2CC2)c2ccc(OC(F)F)nc2)c2nc(C#N)ccc21 [Example 112, 8-((cyclopropylmethyl)(6-(difluoromethoxy)pyridin-3-yl)amino)-5-methyl-6-oxo-5,6-dihydro-1,5-naphthyridine-2-carbonitrile]
0.25 | > 3 | 4.8 | 29 | Cc1cc(C2CC2)ccc1N(CC1CC1)c1cc(=O)n(C)c2ccc(C#N)nc12 [Example 113, 8-((4-cyclopropyl-2-methylphenyl) (cyclopropylmethyl)amino)-5-methyl-6-oxo-5,6-dihydro-1,5-naphthyridine-2-carbonitrile]
0.13 | > 3 | 7.9 | 1.4 | Cn1c(=O)cc(N(CC2CC2)c2ccc(C3CC3)nc2)c2nc(C#N)ccc21 [Example 114, 8-((cyclopropylmethyl)(6-cyclopropylpyridin-3-yl)amino)-5-methyl-6-oxo-5,6-dihydro-1,5-naphthyridine-2-carbonitrile]
0.11 | > 3 | 8.7 | 2.4 | CN(C)c1ccc(N(CC2CC2)c2cc(=O)n(C)c3ccc(C#N)nc23)cc1 [Example 116, 8-((cyclopropylmethyl)(4-(dimethylamino)phenyl)amino)-5-methyl-6-oxo-5,6-dihydro-1,5-naphthyridine-2-carbonitrile]
0.16 | > 3 | 8.8 | 4.7 | Cc1cc(N(CC2CC2)c2cc(=O)n(C)c3ccc(C#N)nc23)ccc1OC(F)F [Example 117, 8-((cyclopropylmethyl)(4-(difluoromethoxy)-3-methylphenyl)amino)-5-methyl-6-oxo-5,6-dihydro-1,5-naphthyridine-2-carbonitrile]
0.33 | 0.92 | 13 | 6.9 | Cn1c(=O)cc(N(CC2CC2)c2ccc3c(c2)OCCO3)c2nc(C#N)ccc21 [Example 120, 8-((cyclopropylmethyl)(2,3-dihydrobenzo[b][1,4]dioxin-6-yl)amino)-5-methyl-6-oxo-5,6-dihydro-1,5-naphthyridine-2-carbonitrile]
0.17 | > 3 | 19 | 22 | Cn1c(=O)cc(N(CC2CC2)c2ccc(C3CC3)c(-c3ccccc3)c2)c2nc(C#N)ccc21 [Example 122, 8-((6-cyclopropyl-[1,1′-biphenyl]-3-yl)(cyclopropylmethyl)amino)-5-methyl-6-oxo-5,6-dihydro-1,5-naphthyridine-2-carbonitrile]
0.64 | > 3 | 24 | 1.2 | Cn1c(=O)cc(N(CC2CC2)c2ccc(OC(F)F)cn2)c2nc(C#N)ccc21 [Example 123]
0.18 | 2.5 | 34 | > 38 | Cn1c(=O)cc(N(CC2CC2)c2ccc(C3CC3)c(-c3ccc(N4CCOCC4)cc3)c2)c2nc(C#N)ccc21 [Example 124, 8-((6-cyclopropyl-4′-morpholino-[1,1′-biphenyl]-3-yl)(cyclopropylmethyl)amino)-5-methyl-6-oxo-5,6-dihydro-1,5-naphthyridine-2-carbonitrile]
0.091 | > 3 | 36 | 32 | Cn1c(=O)cc(N(CC2CC2)c2ccc(C3CC3)c(-c3ccc(C4CC4)cc3)c2)c2nc(C#N)ccc21 [Example 125, 8-((cyclopropylmethyl)(4′,6-dicyclopropyl-[1,1′-biphenyl]-3-yl)amino)-5-methyl-6-oxo-5,6-dihydro-1,5-naphthyridine-2-carbonitrile]
0.085 | > 3 | > 38 | 17 | Cn1c(=O)cc(N(CC2CC2)c2ccc(C3CC3)c(-c3cccc(F)c3)c2)c2nc(C#N)ccc21 [Example 126, 8-((6-cyclopropyl-3′-fluoro-[, 1′-biphenyl]-3-yl) (cyclopropylmethyl)amino)-5-methyl-6-oxo-5,6-dihydro-1,5-naphthyridine-2-carbonitrile]
0.1 | > 3 | > 38 | 18 | Cn1c(=O)cc(N(CC2CC2)c2ccc(C3CC3)c(-c3ccc(F)cc3)c2)c2nc(C#N)ccc21 [Example 127, 8-((6-cyclopropyl-4′-fluoro-[1,1′-biphenyl]-3-yl)(cyclopropylmethyl)amino)-5-methyl-6-oxo-5,6-dihydro-1,5-naphthyridine-2-carbonitrile]
0.13 | > 3 | > 38 | > 38 | Cn1c(=O)cc(N(CC2CC2)c2ccc(C3CC3)c(-c3ccc(Cl)cc3)c2)c2nc(C#N)ccc21 [Example 128, 8-((4′-chloro-6-cyclopropyl-[1,1′-biphenyl]-3-yl)(cyclopropylmethyl)amino)-5-methyl-6-oxo-5,6-dihydro-1,5-naphthyridine-2-carbonitrile]
0.13 | > 1.5 | > 38 | > 38 | COc1cccc(-c2cc(N(CC3CC3)c3cc(=O)n(C)c4ccc(C#N)nc34)ccc2C2CC2)c1 [Example 129, 8-((6-cyclopropyl-3′-methoxy-[1,1′-biphenyl]-3-yl)(cyclopropylmethyl)amino)-5-methyl-6-oxo-5,6-dihydro-1,5-naphthyridine-2-carbonitrile]
0.16 | > 3 | > 38 | > 38 | Cn1c(=O)cc(N(CC2CC2)c2ccc(C3CC3)c(-c3ccc(C(N)=O)cc3)c2)c2nc(C#N)ccc21 [Example 130, 5′-((6-cyano-1-methyl-2-oxo-1,2-dihydro-1,5-naphthyridin-4-yl)(cyclopropylmethyl)amino)-2′-cyclopropyl-[1,1′-biphenyl]-4-carboxamide]
0.18 | > 3 | > 38 | 34 | Cn1c(=O)cc(N(CC2CC2)c2ccc(C3CC3)c(-c3ccc(OCC4CC4)cc3)c2)c2nc(C#N)ccc21 [Example 131, 8-((6-cyclopropyl-4′-(cyclopropylmethoxy)-[1,1′-biphenyl]-3-yl) (cyclopropylmethyl)amino)-5-methyl-6-oxo-5,6-dihydro-1,5-naphthyridine-2-carbonitrile]
0.2 | > 3 | > 38 | 3.6 | Cc1cc(N(CC2CC2)c2cc(=O)n(C)c3ccc(C#N)nc23)ccc1C1CC1 [Example 132]
0.58 | > 3 | > 38 | 4.4 | CC(=O)N(C)c1ccc(N(CC2CC2)c2cc(=O)n(C)c3ccc(C#N)nc23)cc1 [Example 133]
